{"source": "patent US7005546B2", "about": "“Acetamidobenzamide compounds for neurodegenerative disorders” (Renovis, Inc., priority 1995, dated 2006)", "key": {"[1]": {"system": "MPTP-induced reduction in striatal dopamine, C57BL/6J mice", "test": "Dopamine depletion studies (MPTP mouse model of Parkinson's disease)", "assay_type": "in vivo", "details": "for preventing dopamine depletion following MPTP challenge (in words): Table 1 conditions, 30 mg/kg p.o.", "procedure": "These findings have led to the development of an assay for agents effective in treating dopamine-associated neurodegenerative disorders, such as Parkinson's disease. In this assay, test animals are given an amount of MPTP adequate to severely depress their dopamine levels. Test compounds are administered to determine if they are capable of preventing the loss of dopamine in the test animals. To the extent that dopamine levels are retained, a compound can be considered to be an effective agent for slowing or delaying the course of neurodegenerative disease, e.g., Parkinson's disease. C57BL/6J mice were pretreated with either vehicle (1% methyl cellulose) or a drug (p.o.) 30 min before MPTP. MPTP was dissolved in isotonic saline (0.9%) and given subcutaneously as a single dose of 15 mg free base/kg body weight to produce a reduction in striatal dopamine to about 0.5 nanomoles/mg protein. Groups of mice (n=8–10 per group) received either vehicle plus saline, vehicle plus MPTP or drug plus MPTP. Seventy two hours after receiving MPTP, mice were sacrificed using cervical dislocation and the striata were excised. The tissue was homogenized in 0.4 N perchloric acid, centrifuged, and the supernatant analyzed by high performance liquid chromatography/electro-chemical detection (HPLC/ED) for dopamine levels. Supernatants were stored in a −90° C. freezer between the time of collection and analysis. The drugs were combined with methyl cellulose and were homogenized in water for dosing. The dosage amount ranged from 10 to 50 mg/kg for CPI1160, CPI1189 and CPI1234, and from 50 to 100 mg/kg for CPI1020."}, "[2]": {"test": "In vivo biotransformation of orally administered CPI1020, blood of mice", "details": "mice given CPI1020 orally", "from_the_text": "(§1) Commonly owned U.S. patent application Ser. No. 08/227,777, referred to above, discloses several benzamides useful in treating neurodegenerative diseases based on their protective action in the MPTP mouse model of Parkinson's disease. […] This compound is likely formed in the body by reduction of the ring nitro of CPI1020 to an amino moiety (CPI1160) followed by acetylation of the amino function."}, "[3]": {"test": "In vivo biotransformation of orally administered CPI1020, blood of rats", "details": "rats given CPI1020 orally", "from_the_text": "as §1"}}, "data": [{"smiles": "CC(C)(C)NC(=O)c1ccc([N+](=O)[O-])cc1", "note": "[CPI1020, N-tert-butyl-4-nitrobenzamide, reference compound]", "values": [{"measurement": "protection from the neurotoxic action of MPTP (% of control)", "setting": "[1]; 50 mg/kg p.o., 15 mg/kg MPTP model", "value": "65 % of control"}]}, {"smiles": "CC(C)(C)NC(=O)c1ccc(N)cc1", "note": "[CPI1160, N-tert-butyl-4-aminobenzamide]", "values": [{"measurement": "preventing dopamine depletion following MPTP challenge (in words)", "setting": "[1]", "value": "effective"}, {"measurement": "melting point", "value": "125 to 127", "unit": "°C"}]}, {"smiles": "CC(=O)Nc1ccc(C(=O)NC(C)(C)C)cc1", "note": "[CPI1189, N-tert-butyl-4-acetamidobenzamide]", "values": [{"measurement": "preventing dopamine depletion following MPTP challenge (in words)", "setting": "[1]", "value": "effective"}, {"measurement": "in vivo biotransformation product of CPI1020 in blood", "setting": "[2]", "value": "found in the blood"}, {"measurement": "in vivo biotransformation product of CPI1020 in blood", "setting": "[3]", "value": "found in the blood"}]}, {"smiles": "CC(=O)Nc1cccc(C(=O)NC(C)(C)C)c1", "note": "[CPI1234, N-tert-butyl-3-acetamidobenzamide]", "values": [{"measurement": "preventing dopamine depletion following MPTP challenge (in words)", "setting": "[1]", "value": "effective"}, {"measurement": "melting point", "value": "194 to 195", "unit": "°C"}]}]}
